# Experimental data from US9814732B2, “Ulipristal acetate for prevention and treatment of breast tumors” (LABORATOIRE HRA-PHARMA, priority 2012, dated 2017).
# Tests used:
# [1] = system: normal human breast tissues xenografts; experiment: Ki67 mitotic index in normal human breast tissue xenografted in athymic mice; format: in vivo; details: E2+P+UPA vs E2 and E2+P groups, lobules and ducts, UPA 20 mg pellet, 28 days
# Excerpt: Breast tissues samples were obtained from 6 women (aged 29-42 years) undergoing surgery for reduction mammoplasty, with their informed consent according to the French law on clinical experimentation.
# Four weeks old ovariectomized female NMRInu/nu 20 athymic mice were purchased from Janvier laboratory (Le Genest Saint Isle, France). Breast tissues samples were obtained from 6 women (aged 29-42 years). Human mammary gland tissue was cut into 2×2×2 mm fragments and 4 fragments were then subcutaneously xenografted onto the back of 4 mice per group. Four treatment groups were performed: control, E2, E2+P and E2+P+UPA. Treatments were administered by grafting steroid pellets onto the neck of each mouse. The experimental conditions were initially determined by using a dose range of hormones mixed with cholesterol into the pellets. Blood sample assays were performed after 2 weeks and 4 weeks of treatment to measure plasmatic hormonal concentrations. Finally, the dose of 0.3 mg for E2 and 20 mg for P and UPA were used, as it provides the expected blood concentrations. For the control groups, pellets containing only cholesterol were used. To reproduce menstrual cycle conditions, mice were grafted on the first day of experiment with cholesterol, E2 and/or UPA containing pellets and on the fourteen day with cholesterol or progesterone containing pellets in control and E2 groups, or in E+P and E2+P+UPA groups, respectively. Twenty eight days after the start of experiment, mice were sacrificed. Blood was collected for each mouse, and serum was frozen at −20° C. until hormone concentrations
# Mitotic index was calculated using the Ki67 antibody, and was determined for each breast tissue grafted into mice. Immunohistochemical analyses were performed using the BOND-MAX workstation (Leica, Nanterre, France). Paraffin sections of breast tissue xenografts were de-waxed and rehydrated before antigen retrieval using citrate retrieval solution (pH 6.0) for Ki67 antibody or EDTA retrieval solution (pH 9.0) for PR and ERalpha antibodies, for 30 min. […]
# [2] = system: PR target genes (FASN, cyclin A, BCL2, ALPL); experiment: qRT-PCR mRNA expression of PR target genes in T-47D cells; format: cell-based, human
# Description: After seeding, cells were cultured for 24 h in serum and phenol red free medium. Then treatments were carried out in a phenol red free medium containing 5% dextran-charcoal stripped serum. Cells were treated with P or DEX (100 nM), alone or in combination with UPA, RU (1 nM to 1 μM) or CDB-3877 (100 nM). Control cells were treated with ethanol, at […] 1:1000 final ethanol concentration alone as vehicle or E2 (10 nM).
# Total RNA was extracted using TriZOL Reagent (Invitrogen, Cergy-Pontoise, France).
# 2 μg of total RNA was subjected to reverse transcription (RT) using random primers for 1 h at 37° C. 2 μl of RT product was diluted (1:10) and subjected to quantitative PCR using sequence specific primers (300 nM) and Brillant SYBR GREEN QPCR master mix (Fermentas, Saint-Rémy-lès-Chevreuse, France) on an Mx3000P apparatus (Agilent Technologies, Massy, France). Conditions were 1 cycle at 95° C. for 10 min followed by 40 cycles at 95° C. for 30 sec, 60° C. for 1 min and 72° C. for 30 sec. Gene expression values were normalized to the housekeeping gene 36B4. Time of steroid treatment was chosen to get the optimal stimulation for a given gene. ALPL and G0S8 mRNA were analyzed after 6 h of treatment. IEX-1, FASN, and BCL2 were analyzed after 24 h of treatment. Cyclin A mRNA was analyzed after 24 h for GR responses or 48 h for PR responses.
compound,measurement,setting,value
"CC(=O)O[C@]1(C(C)=O)CCC2C3CCC4=CC(=O)CCC4=C3[C@@H](c3ccc(N(C)C)cc3)C[C@@]21C (stereo partly drawn) [UPA, 17[…]-acetoxy-11[…]-[4-N,N-dimethylamino-phenyl)-19-norpregna-4,9-diene-3,20-dione]",proliferation rate (Ki67) of normal epithelial breast cells,[1],does not significantly influence the proliferation rate
same,ALPL mRNA expression,"[2]; P and/or UPA 100 nM, 6 h",totally inhibited the strong P mediated induction of ALPL transcript
same,FASN mRNA expression,"[2]; P and/or UPA 100 nM, 24 h",able to prevent P induction of FASN mRNA expression
same,BCL2 mRNA expression (PR response),"[2]; P and/or UPA 100 nM, 24 h, p<0.01",antagonized the P inhibitory effect on this transcript
same,cyclin A mRNA expression (PR response),"[2]; P and/or UPA 100 nM, 48 h",reversed P-induced cyclin A mRNA down-regulation
same,PR agonist activity on PR target genes,[2]; UPA 100 nM alone,did not display any PR agonist activity
